The source of these data is patent publication US20240116994A1, “Peptides And Use Thereof For Diagnosing And Treating Antiphospholipid Syndrome” (UNIVERSITE DE GENEVE, priority 2021, published 2024).

Test [1] deals with binding of aPL to IIa-8.0-biot-2x. As to the kind of experiment: Inhibition experiments: remaining reactivity of pre-treated aPL on IIa-8.0-biot-2x ELISA. On the set-up: species or system Human. Conditions: aPL pool sera preincubated 90 min at RT with 1, 10 and 10011 g/ml peptide. Here is the method: To examine the functional ability of IIa-5.0, IIa-7.1, IIa-8.0 peptides and R39-R43 to inhibit the activity of pool of aPL isolated from APS patients, the remaining reactivity of aPL was evaluated for IIa-8.0-biot-2x which had previously been treated with increasing concentration of peptides. […] The flag-type orientation prevents potential interactions with the plate or with itself, particularly in solution. Streptavidin magnetic beads associated with IIa-5.0-biot-2x, IIa-7.1-biot-2x and Ha-8.0-biot-2x peptides have been generated. aPL was treated with increasing concentrations of beads before to measure the remaining binding activity of aPL on IIa-8.0-biot-2x ELISA (FIG. 7C).
To assess the ability of IIa-5.0-2x, IIa-7.1-2x and IIa-8.0-2x to inhibit in vitro the binding of aPL to IIa-8.0-biot-2x. aPL pool sera were preincubated for 90 min at RT with increasing concentrations (1, 10 and 10011 g/ml) of monomeric, dimeric IIa-5.0, IIa-7.1 and IIa-8.0 peptides and of IIa-5.0-biot-2x, IIa-7.1-biot-2x and IIa-8.0-biot-2x-associated beads (15, 30 and 60 pmol). 120 pmol correspond to the amount of IIa-8.0-biot-2x coated in well of Streptavidin Coated High Capacity Plates 96 well plates (Thermofisher). After the pre-incubation time, the serum was added anti-b2GP1 IgG (anti-IIa-8.0-2x) ELISA according to the protocol.

Test [2] relates to aPL from a pool of 13 Human patients. The test is described as follows: Surface plasmon resonance, aPL flown over biotin-peptide-coated SA chip (BIAcore X100). In kind it is binding. Conditions: for sustained interaction / stability of binding with aPL (shape of SPR curves): stabilization curves. Here is the method: The kinetics and affinity of protein-protein and protein-lipid interactions were determined using a BIAcore X100 instrument. 1 mg/ml of biotin-tagged peptide (ligand) was immobilized using a sensor chip SA (GE Healthcare) surface, whereas aPL from a pool of 13 Human patients were flown as analyte. The first flow cell of the sensor chip was used as a control surface (no protein), whereas the second flow cell was employed as the active surface. A range of dilution of aPL analytes prepared in the same buffer was injected on both flow cell surfaces at a flow rate of 30 μl/min. Association and dissociation times for each protein injection were set at 90 and 120 s, respectively. In all cases, sensorgrams were obtained from three different dilutions of aPL.
(§1) The de Groot's research group has pointed at the importance of hydrophobic character of the plate during coating of R39-R43 epitope. In order to abrogate of the plate-dependent aPL binding, the Ia-1 and Ib-1 peptides as well as the R39-R43 with a biotin at their N-terminal were synthetized and coated a streptavidin plate. In this configuration, the different peptides are flag oriented in the space preventing any interaction with the plate. It was thus observed that the flag-type orientation of R39-R43-biot leads to 8.52×more interaction with aPL while they show 9.63×more binding for Ib-1-biot presenting the same position. […] The surface plasmon resonance (SPR) technique is used to determine the relative avidity of aPL for R39-R43-biot and Ib-1-biot. The interaction between aPL and immobilized R39-R43-biot or Ib-1-biot is monitored by flowing various concentrations of aPL over a R39-R43-biot- or Ib-1-biot-coated chip surface (FIG. 1C). Through SPR experiments, it appears that aPL avidity for Ib-1-biot presents a resonance unit (RU) of 51.49 at 1/1,000 of dilution and a RU of 27.61 at 1/10,000 of dilution while, at the same dilution, it present a RU of 27.36 and a RU of 17.99 with R39-R43-biot, respectively (FIG. 1C). However, at higher concentrations, the peptides seems to show no differences in the interactions with aPL. […] Considering that IgG valency, it was decided to generate a dimeric Ib-1-biot peptide (Ib-1-biot-2x). This new polypeptide carries thus two optimized epitopes which have the opportunity to interact with two Fab fragment present on aPL. […] At higher concentration, i.e dilution of 1/100, the avidity for dimeric peptide is 28×more than for the monomeric (FIG. 1D).
It was performed a peptide substitution scan of Ib-1-biot VSRGGMRKKKKPLTG (SEQ ID NO: 6) carrying the optimized epitope Ib-1-biot and based on an exchange of the underlined amino acid positions with the 20 main amino acids. The resulting peptide microarrays contained 140 different peptides. It was observed that the peptide substitution of the position n° 1, 2, 12 and 15 have significant influences on the ability to interact with aPL from patients 1, 2, 3, 4 and, in particular, form the plasma pool. Indeed, the substitution of the position 1, 12 or 15 by an Arginine (R) or a Lysine (K) increases the avidity of the peptide for all aPL from patients. […] In this context, the enhancement relative to Ib-1.0-biot-2x of identified peptides was evaluated (FIG. 2A). […] However, streptavidin being known to produce unspecific binding, it was used the ratio between aPL and a pool of human plasma as control (B/B0) (FIG. 2B, upper panel). This representation therefore allows to distinguish the real levels of interactions. It was then performed a dilution assay from dilution of 1/100 to 1/1,200,000 and it was observed relevant differences between the different identified peptides. By comparison of area under the curve (AUC), it was possible to detect the most prone-interacting peptide with aPL. Thus, the peptide IIa-8.0-biot-2x obtained the higher AUC (FIG. 2B, bottom panel). […]

Test [3] concerns aPL (pool from APS patients). As to the kind of experiment: Determination of aPL by ELISA on coated peptides / biotinylated peptides (custom immunoassay). In kind it is binding, Human. To be noted: for increase fold mean of aPL interaction relative to β2GP1: ELISA, 1/10 dilution of aPL pool, reference reduced β2GP1 (FIG. 1A). Here is the method: Determination of aPL by ELISA—MaxiSorp™ 96 well plates (Nunc) or Streptavidin plate (Thermofisher) were coated with 10 μg/ml recombinant domains of β2GP1, peptides or biotinylated-peptide prior to incubation with aPLA. Secondary anti-human antibodies conjugated to IR800CW (Rockland) or HRP were used. Protein- or peptide-bound antibodies were detected and quantified by the Odyssey system (Li-Cor Biosciences) or absorbance in optical densities (OD) was determined at 405 nm (molecular Devices™ Filtermax).
as §1
It was performed a peptide substitution scan of Ib-1-biot VSRGGMRKKKKPLTG (SEQ ID NO: 6) carrying the optimized epitope Ib-1-biot and based on an exchange of the underlined amino acid positions with the 20 main amino acids. The resulting peptide microarrays contained 140 different peptides. It was observed that the peptide substitution of the position n° 1, 2, 12 and 15 have significant influences on the ability to interact with aPL from patients 1, 2, 3, 4 and, in particular, form the plasma pool. Indeed, the substitution of the position 1, 12 or 15 by an Arginine (R) or a Lysine (K) increases the avidity of the peptide for all aPL from patients. […] In this context, the enhancement relative to Ib-1.0-biot-2x of identified peptides was evaluated (FIG. 2A). […] However, streptavidin being known to produce unspecific binding, it was used the ratio between aPL and a pool of human plasma as control (B/B0) (FIG. 2B, upper panel). This representation therefore allows to distinguish the real levels of interactions. It was then performed a dilution assay from dilution of 1/100 to 1/1,200,000 and it was observed relevant differences between the different identified peptides. By comparison of area under the curve (AUC), it was possible to detect the most prone-interacting peptide with aPL. Thus, the peptide IIa-8.0-biot-2x obtained the higher AUC (FIG. 2B, bottom panel). To formally quantify the ability of aPL to interact with IIa-8.0-biot-2x, it was monitored by flowing various concentrations of aPL over a IIa-8.0-biot-2x-coated chip surface (FIG. 2C). […] In FIG. 2C, bottom panel, it can be appreciated more precisely the improvement of the quality of interactions. […]

The mark [4] stands for this setting: aPL at 1/1,000 of dilution (FIG. 1C).
Setting [5] is: aPL at 1/10,000 of dilution (FIG. 1C).
The mark [6] stands for this setting: after a dilution of 100× of aPL (1/1,000) (FIG. 1B).
Where [7] appears, read: streptavidin plate, N-terminal biotin, 1/10 dilution of aPL pool (FIG. 1B).

Where no end group is shown, it is not given here. The star is where a group is joined. Biotin = O=C1N[C@H]2[C@H](CS[C@H]2CCCCC(=O)*)N1

VSRGGMRKRKKPLTK [IIa-5.0]: the “inhibition of aPL binding to IIa-8.0-biot-2x ELISA by peptide in solution” value (“inhibition of aPL binding” below) in test [1] is “prevents their further binding to IIa-8.0-biot-2x ELISA”.
Consider “R39-R43-biot: R39-R43 peptide with a biotin at its N-terminal (Biotin-VSRGGMRKFICPLTG) [reference compound]”, for which the figures for the “resonance unit (RU), aPL avidity” value in test [2] (setting [4]) and in test [2] (setting [5]) were 27.36 RU and 17.99 RU, respectively. The “sustained interaction / stability of binding with aPL (shape of SPR curves)” value in test [2] is reported as “neither R39-R43-biot nor Ib-1-biot have sustained interaction with aPL”. In addition, the “interaction with aPL of flag-oriented biotinylated peptide versus nude peptide” value in test [3] (setting [6]) worked out at 2.83 ×; in test [3] (setting [7]) it was 8.52 ×.
As for “VSRGGMRKFICPLTG [R39-R43, reference compound]”, in test [1], the “inhibition of aPL binding” value is given as “failed to significantly inhibit”. In addition, in test [3], the “increase fold mean of aPL interaction relative to β2GP1” value is “same ability to interact with aPL than β2GP1”.
“Ib-1-biot: monomeric Ib-1 peptide with a biotin at its N-terminal (Biotin-VSRGGMRKKKKPLTG)”: the “resonance unit (RU), aPL avidity” value in test [2] (setting [4]) was 51.49 RU; in test [2] (setting [5]) it was 27.61 RU. Also, the “sustained interaction / stability of binding with aPL (shape of SPR curves)” value in test [2] is “neither R39-R43-biot nor Ib-1-biot have sustained interaction with aPL”. For the same molecule, the “interaction with aPL of flag-oriented biotinylated peptide versus nude peptide” value in test [3] (setting [6]) came out at 4.3 ×; in test [3] (setting [7]), 9.63 ×.
Take VSRGGMRKRKKKKTG [IIa-7.1]: the “inhibition of aPL binding” value in test [1] is listed as “prevents their further binding to IIa-8.0-biot-2x ELISA”.
Consider “VSRGGMRKKKKPLTG [Ib-1, corresponding to the second substitution scan]”, for which the “increase fold mean of aPL interaction relative to β2GP1” value in test [3] was found to be 5.5 fold.
On to RSRGGMRKRKKPLTG [IIa-8.0], for which, in test [1], the “inhibition of aPL binding” value was “prevents their further binding to IIa-8.0-biot-2x ELISA”.
Regarding “VSRGGMRKFIKPLTG [Ia-1, corresponding to the first substitution scan]”, the “increase fold mean of aPL interaction relative to β2GP1” value in test [3] was found to be 3.47 fold.

B1: Dom MI: recombinant Domain I-II of β2GP1 (protein)
chain: GRTCPKPDDLPFSTVVPLKTFYEPGEEITYSCKPGYVSRGGMRKFICPLTGLWPINTLKCTPRVCPFAGILENGAVRYTTFEYPNTISFSCNTGFYLNGADSAKCTEEGKWSPELPVCAP
For the molecule B1, the “increase fold mean of aPL interaction relative to β2GP1” value in test [3] was “same ability to interact with aPL than β2GP1”.
